For orientation: pIC50 means −log10 of the IC50, conventionally taken in molar units.

For one test, the system named is MDA-MB-231 cells. Briefly: Matrigel invasion assay. Type of test: cell-based. As to conditions: MDA-MB-231 cells pretreated with inhibitors for 24 h; control 69.07 ± 5.26%. Here is the method: Figure 5 Effects of compounds 1–3 and JG26 on cancer cell invasion. MDA-MB-231 cells were pretreated with inhibitors for 24 h prior to the assay. Boxplot of invaded cells in %. Results are obtained from three independent experiments with counting of five randomly chosen viewing fields. One-way ANOVA was performed to determine statistical significance with * p < 0.05 and *** p < 0.001. […]
Thincerts of […] pore size, translucent (Greiner BioOne) were transferred into 24-well plates. Each insert was loaded with 75 µL Matrigel (BD Biosciences), 1:1 diluted with serum-free medium DMEM.
After 1 hour, thincerts were turned upside down and 25000 MDA-MB-231 cells, pretreated with vehicle (DMSO) or 20 µM inhibitors (JG26 and compounds 1-3 in DMSO) for 24 hours in DMEM/0.5 % FCS were seeded on the lower side and incubated for 3-4 hours so that cell can adhere to the membrane. To induce cell invasion, DMEM/20% FCS was applied to the upper chamber in order to […]
form a concentration gradient. After 18 hours, cells were fixed with 3.7 % paraformaldehyde and stained with 4’,6-Diamidin-2-phenylindol (DAPI) to detect cell nuclei. Quantification of cell invasion was performed using a confocal microscope by stacked imaging. Cell nuclei present in the upper and the lower chamber were counted in 5 randomly chosen viewing fields and the amount of invasion was calculated in percent as the ratio between invaded cells/non-invaded cells x 100. Experiments were repeated 3 times, counting 5 random viewing fields per well, respectively.
Protein extraction and Western Blot analysis
After 48 h, total protein extraction was performed by detaching the cells with a cell scraper. Cells were washed with PBS, resuspended in 50 μL RIPA (50 mM HEPES pH 7.4; 150 mM NaCl; 1% (v/v) NP-40; 0.5% (w/v) Natriumdeoxycholate; 0.1% (w/v) SDS; 10 mM Phenantrolin; 10 mM EDTA; PierceTM Protease Inhibitor Mini Tablets, EDTA-free, Thermo Scientific; PierceTM Phosphatase Inhibitor Mini Tablets, Thermo Scientific) and incubated for 30 min on ice. […]
2% (w/v) SDS; 10% (w/v) Glycerol; 5% (v/v) ß-Mercaptoethanol; 0.01% (w/v) Bromphenol-Blue) for 5 min. The proteins were separated by 10% SDS-PAGE and subsequently transferred on a nitrocellulose membrane (GE Healthcare). The membrane was then blocked with 5% (w/v) milk powder (MP) in TBST (50 mM Tris, pH 7.5; 150 mM NaCl; 0.1% (w/v) Tween-20) for 1 h and probed with the following primary antibodies: anti-beta Tubulin (NB600-936, Novus Biological, 1:2000), anti- […]
Cell Signaling, 1:2000) and anti-pAkt (4060, Cell Signaling, 1:2000) at 4°C overnight. After washing the 3x with TBST, the membrane was incubated with horseradish peroxidase-conjugated secondary antibodies for 1 h (abcam, 1:5000) followed by a repeated washing step. […]

The subject of test [1] is ADAM8-dependent shedding of CD23 in double-stable HEK cells (ADAM8/CD23). Briefly: Cell-based CD23 shedding assay (soluble CD23 ELISA). The conditions noted are these: Homo sapiens, HEK293, 24 h incubation, 125 nM to 10 μM, ELISA of supernatants, read-out: IC50 for shedding of CD23 (soluble CD23 release). The method, then:
Next, these compounds were tested for their ability to inhibit the shedding of an ADAM8-dependent cell surface protein, the low affinity IgE receptor CD23, […]. In brief, a human embryonic kidney (HEK) cell line expressing ADAM8 and CD23[13] was incubated with different concentrations of inhibitors, and the release of soluble CD23 in the cell supernatants was determined by a CD23 enzyme-linked immunosorbent assay (ELISA) (Figure 4).
Figure 4 Effects of new compounds 1–3 and JG26 (125 nM to 10 μM) on the shedding of CD23 in a cell-based assay using double-stable HEK cells (ADAM8/CD23). After the incubation of cells with 1–3 and JG26 for 24 h, cell supernatants were collected and subjected to an ELISA to determine the amount of soluble CD23. Data are the mean values from three independent experiments performed in triplicate. […]
VII. Biological Activity on cells
Cell-based shedding assay
HEK293 cells stably transfected with ADAM8 and CD23 were incubated for 24 h at 37°C in the presence of inhibitors in concentrations indicated in DMEM medium supplemented with 10% fetal calf serum. A human soluble CD23 ELISA (R&D Systems, Biotechne, Wiesbaden) was used to detect ADAM8-dependent release of soluble CD23 in the cell culture medium. ELISA experiments were performed in three independent experiments in triplicates. The relative CD23 release (control = 100%) was determined for all samples. […]

pIC50: −log10 of the molar value.

Take `O=C(CCCNC(=O)c1cccc(C(=O)NCCCC(=O)NCCC[C@@H](NS(=O)(=O)c2ccc(OCc3cc(Br)cc(Br)c3)cc2)C(=O)NO)c1)NCCC[C@@H](NS(=O)(=O)c1ccc(OCc2cc(Br)cc(Br)c2)cc1)C(=O)NO` [Compound 1]: the Invaded cells with MDA-MB-231 cells worked out at 57.25 ± 7.24%. Moreover, the negative logarithm of the IC50 (pIC50) in test [1] was less than 5.82.

On to `O=C(NCCC[C@@H](NS(=O)(=O)c1ccc(OCc2cc(Br)cc(Br)c2)cc1)C(=O)NO)c1cccc(C(=O)NCCC[C@@H](NS(=O)(=O)c2ccc(OCc3cc(Br)cc(Br)c3)cc2)C(=O)NO)c1` [Compound 2], for which the Invaded cells in the test with MDA-MB-231 cells is listed as 50.8 ± 11.4%. The pIC50 in test [1] is 6.46.

For `O=C(NCCC[C@@H](NS(=O)(=O)c1ccc(OCc2cc(Br)cc(Br)c2)cc1)C(=O)NO)NCCC[C@@H](NS(=O)(=O)c1ccc(OCc2cc(Br)cc(Br)c2)cc1)C(=O)NO` [Compound 3], the Invaded cells with MDA-MB-231 cells is on record as 52.9 ± 9.14%. Besides, the pIC50 in test [1] was 6.10.

With `NC(=O)NCCC[C@@H](NS(=O)(=O)c1ccc(OCc2cc(Br)cc(Br)c2)cc1)C(=O)NO` [JG26, reference compound], the Invaded cells in the test on MDA-MB-231 cells is on record as 59.87 ± 12.27%. In addition, in test [1], the pIC50 was 6.92.

The values are drawn from PMC8805605, “Discovery of Dimeric Arylsulfonamides as Potent ADAM8 Inhibitors” (ACS Medicinal Chemistry Letters, 2021).
